Drawing on patent publication US6979681B2, “Half-sandwich ruthenium (II) compounds comprising nitrogen containing ligands for treatment of cancer” (University Court, The University of Edinburgh, priority 1999, dated 2005), this text covers IC50 for 11 compounds.

The term IC50 denotes the concentration that gives 50% inhibition.

The subject of this assay is A2780 ovarian cancer cell line. Nature of the assay: Cell growth inhibition of Ru compounds on A2780 ovarian cancer cell line (24-well trays, Coulter counter). It counts as cell-based. Particulars: 24 hours drug exposure, further 3 days growth, cell count. The protocol:
The compounds are tested on 24-well trays. Cells growing in a flask are harvested just before they become confluent, counted using a haemocytometer and diluted down with media to a concentration of 1×10^4 cells per ml. The cells are then seeded in the 24-well trays at a density of 1×10^4 cells per well (i.e. 1 ml of the diluted cell suspension is added to each well). The cells are then left to plate down and grow for 72 hours before adding the compounds of the invention.
The Ru complexes are weighed out and made up to a concentration of 1 mg/ml with deionised water then sonicated until they go into solution. The appropriate volume of the Ru solution is added to 5 ml of media to make it up to a concentration of 100 μM for each drug. This 100 μM solution is then serially diluted to make up the 10 μM, 1 μM and 0.1 μM solutions.
The media is removed from the cells and replaced with 1 ml of the media dosed with drug. Each concentration is done in duplicate. A set of control wells are left on each plate, containing media without drug.
The cells are left exposed to the drugs for 24 hours and then washed with phosphate buffered saline before fresh media is added.
They are allowed to grow on for a further 3 days before being counted using a Coulter counter.
Preparing cells for counting:
Media is removed and 1 ml of PBS is added to the cells.
250 μl of trypsin is added and cells left in incubator for a few minutes to allow the monolayers to detach.
Once trypsinised, 250 μl of media is added to each well to neutralise the trypsin. 200 μl of this suspension is added to 10 ml of NaCl for counting.
Using the above protocol, a number of compounds of the invention were tested on A2780 ovarian cancer cell line.
For the compound `F[P-](F)(F)(F)(F)F.[Cl][Ru-]1[NH2+]CC[NH2+]1.c1ccccc1` [Example 3, [(η^6-C6H6)RuCl(H2NCH2CH2NH2—N,N)]^+[PF6]^−], the IC50 was found to be 8 µM. `F[P-](F)(F)(F)(F)F.[I][Ru-]1[NH2+]CC[NH2+]1.c1ccccc1` [Example 4, [(η^6-C6H6)RuI(H2NCH2CH2NH2—N,N)]^+[PF6]^−] yielded a 50% inhibitory concentration (IC50) of 20 µM.

On to `COC(=O)c1ccccc1.F[P-](F)(F)(F)(F)F.[Cl][Ru-]1[NH2+]CC[NH2+]1` [Example 8, [η^6-C6H5CO2CH3)RuCl(H2NCH2CH2NH2—N,N)]^+[PF6]^−], for which 55 µM corresponded to half-maximal inhibition (IC50). `F[P-](F)(F)(F)(F)F.[Cl][Ru-]1[NH2+]CC[NH2+]1.c1ccc(-c2ccccc2)cc1` [Example 9, [(η^6-C6H5C6H5)RuCl(H2NCH2CH2NH2—N,N)]^+[PF6]^−]: half-maximal inhibition (IC50) was put at 6 µM. The compound `CC[NH+]1CC[NH2+][Ru-]1[Cl].F[P-](F)(F)(F)(F)F.c1ccc(-c2ccccc2)cc1` [Example 10, {(η^6-C6H5C6H5)RuCl[H2N(CH2)2NH(CH2CH3)]}^+PF6^−] showed a concentration for half-maximal inhibition (IC50) of 6 µM. That is a single-digit micromolar value. The same measure for `F[P-](F)(F)(F)(F)F.F[P-](F)(F)(F)(F)F.[Cl][Ru-]1[NH2+]CC[NH+]1CCCCCC[NH+]1CC[NH2+][Ru-]1[Cl].c1ccc(-c2ccccc2)cc1.c1ccc(-c2ccccc2)cc1` (centres unmarked) [Example 11, {[η^6-C6H5C6H5)RuCl]2[H2N(CH2)2NH(CH2)6NH(CH22NH2—N,N′,N″,N′″]}^2+2PF6^−]: 5 µM; for “[(η^6-p-cymene)RuBr(CH3CN)2]^+[PF6]^− [Example 2]”: 8 µM. “[(η^6-p-cymene)RuCl2(isonicotinamide)] [Example 7]”: inhibition was half-maximal at 11 µM (IC50).

Consider “[(η^6-p-cymene)RuCl(CH3CN)2]^+[PF6]^− [Example 1]”, for which half-maximal inhibition (IC50) required 7 µM. This IC50 lies about 1.6-fold lower than the previous one. Consider “[(η^6-p-cymene)RuCl(H2NCH2CH2NH2—N,N)]^+[PF6]^− [Example 5]”, for which the IC50 worked out at 8 µM. Compound “[(η^6-p-cymene)RuI(H2NCH2CH2NH2—N, N)]^+[PF6]^− [Example 6]” yielded an IC50 of 6 µM.
